{
  "source": "ChEMBL document CHEMBL5338747",
  "about": "“Discovery of Quaternized Pyridine-Thiazole-Pleuromutilin Derivatives with Broad-Spectrum Antibacterial and Potent Anti-MRSA Activity” (J Med Chem, 2023)",
  "key": {"[1]": {"tested_on": "Pseudomonas aeruginosa", "test": "Antibacterial activity against multidrug-resistant Pseudomonas aeruginosa 126 assessed as inhibition of bacterial growth incubated for 24 hrs by broth microdilution method", "type": "functional"}, "[2]": {"tested_on": "Acinetobacter baumannii", "test": "Antibacterial activity against carbapenem-resistant Acinetobacter baumannii 882 assessed as inhibition of bacterial growth incubated for 24 hrs by broth microdilution method", "type": "functional"}, "[3]": {"tested_on": "Cell membrane", "test": "Disruption of bacterial cell membrane in methicillin-resistant Staphylococcus aureus ATCC 33591 assessed as severe depression on the cell surface,cell rupture and leakage of intracellular components at 4XMIC incubated for 4 hrs by FESEM analysis", "type": "subcellular"}, "[4]": {"tested_on": "Staphylococcus aureus", "test": "Antibacterial activity against methicillin-resistant Staphylococcus aureus 575 assessed as inhibition of bacterial growth incubated for 24 hrs by broth microdilution method", "type": "functional"}, "[5]": {"tested_on": "Staphylococcus aureus", "test": "Antibacterial activity against methicillin-resistant Staphylococcus aureus ATCC 33591 infected in Kunming mouse assessed as reduction in number of inflammatory cells in liver at 10 mg/kg, ip for 2 days starting from 1 hr post-infection by hematoxylin-eosin staining based analysis", "type": "functional, organism-based", "conditions": "time 2.0 day"}, "[6]": {"test": "Drug metabolism in Sprague-Dawley rat plasma assessed as metabolite formation at 10 mg/kg, iv measured after 1 hr by UPLC/Q-TOF-MS analysis", "type": "ADME, organism-based", "conditions": "in vivo"}, "[7]": {"tested_on": "Staphylococcus aureus", "test": "Bactericidal activity against methicillin-resistant Staphylococcus aureus ATCC 33591 assessed as reduction in bacterial colonies formation at 2XMIC incubated for 12 hrs in MHB followed by culturing on agar plate for 24 hrs by time-kill kinetics based analysis", "type": "functional", "parameters": "scale not given: the % may be the effect or the level left", "conditions": "time 36 hrs"}, "[8]": {"tested_on": "Escherichia coli", "test": "Antibacterial activity against Escherichia coli ATCC 25922 assessed as inhibition of bacterial growth incubated for 24 hrs by broth microdilution method", "type": "functional"}, "[9]": {"tested_on": "Cell membrane", "test": "Disruption of bacterial cell membrane in methicillin-resistant Staphylococcus aureus ATCC 33591 assessed as increase in red fluorescence intensity at MIC incubated for 2 hrs by MycoLightGreen1198/PI staining based confocal laser scanning microscopy", "type": "subcellular"}, "[10]": {"tested_on": "Staphylococcus aureus", "test": "Antibacterial activity against methicillin-resistant Staphylococcus aureus ATCC 33591 infected in Kunming mouse assessed as reduction in bacterial load in kidney at 5 to 10 mg/kg, ip for 2 days starting from 1 hr post-infection by hematoxylin-eosin staining based analysis", "type": "functional, organism-based", "conditions": "dose 5-10 mg/kg, time 2.0 day"}, "[11]": {"tested_on": "Cell membrane", "test": "Disruption of bacterial cell membrane in methicillin-resistant Staphylococcus aureus ATCC 33591 assessed as increase in fluorescence intensity by DiBAC4(3) dye based fluorescence analysis", "type": "subcellular"}, "[12]": {"tested_on": "Staphylococcus aureus", "test": "Antibacterial activity against methicillin-resistant Staphylococcus aureus ATCC 33591 infected in Kunming mouse assessed as animal survival rate at 3 mg/kg, ip for 7 days starting from 1 hr post-infection", "type": "functional", "conditions": "ATCC 33591, 168 h, time 7 day"}, "[13]": {"tested_on": "Mesomycoplasma hyopneumoniae", "test": "Anti-mycoplasma activity against Mycoplasma hyopneumoniae J NCTC10110 assessed as inhibition of mycoplasma growth measured after 7 days by broth microdilution method", "type": "functional", "conditions": "J NCTC10110, 168 h, time 7 day"}, "[14]": {"tested_on": "Enterococcus", "test": "Antibacterial activity against vancomycin-resistant Enterococcus 80 assessed as inhibition of bacterial growth incubated for 24 hrs by broth microdilution method", "type": "functional"}, "[15]": {"tested_on": "Acinetobacter baumannii", "test": "Antibacterial activity against Acinetobacter baumannii ATCC 19606 assessed as inhibition of bacterial growth incubated for 24 hrs by broth microdilution method", "type": "functional"}, "[16]": {"tested_on": "Staphylococcus aureus", "test": "Antibacterial activity against methicillin-resistant Staphylococcus aureus ATCC 33591 infected in Kunming mouse assessed as animal survival rate at 10 mg/kg, ip for 7 days starting from 1 hr post-infection", "type": "functional", "conditions": "ATCC 33591, 168 h, time 7 day"}, "[17]": {"tested_on": "Cell membrane", "test": "Disruption of bacterial cell membrane in methicillin-resistant Staphylococcus aureus ATCC 33591 assessed as increase in number of surface folds and atrophy at MIC incubated for 4 hrs by FESEM analysis", "type": "subcellular"}, "[18]": {"tested_on": "Escherichia coli", "test": "Disruption of biofilm formation in Escherichia coli ATCC 25922 assessed as inhibition of biofilm formation at 4XMIC measured after 24 hrs by crystal violet staining based analysis", "type": "functional"}, "[19]": {"tested_on": "Escherichia coli", "test": "Bactericidal activity against Escherichia coli ATCC 25922 assessed as reduction in bacterial colonies formation at 4XMIC incubated for 4 hrs in MHB followed by culturing on agar plate for 24 hrs by time-kill kinetics based analysis", "type": "functional", "parameters": "scale not given: the % may be the effect or the level left", "conditions": "time 28 hrs"}, "[20]": {"tested_on": "Mycoplasmoides gallisepticum", "test": "Anti-mycoplasma activity against Mycoplasma gallisepticum R NCTC10115 assessed as inhibition of mycoplasma growth measured after 7 days by broth microdilution method", "type": "functional", "conditions": "R NCTC10115, 168 h, time 7 day"}, "[21]": {"tested_on": "Cell membrane", "test": "Disruption of bacterial cell membrane in Escherichia coli ATCC 25922 assessed as increase in number of surface folds and atrophy at MIC incubated for 4 hrs by FESEM analysis"}, "[22]": {"tested_on": "Staphylococcus aureus", "test": "Antibacterial activity against methicillin-resistant Staphylococcus aureus ATCC 33591 infected in Kunming mouse assessed as animal survival rate at 5 mg/kg, ip for 7 days starting from 1 hr post-infection", "type": "functional", "conditions": "ATCC 33591, 168 h, time 7 day"}, "[23]": {"tested_on": "Staphylococcus aureus", "test": "Disruption of biofilm formation in methicillin-resistant Staphylococcus aureus ATCC 33591 assessed as inhibition of biofilm formation at 4XMIC measured after 24 hrs by crystal violet staining based analysis", "type": "functional"}, "[24]": {"tested_on": "Mycoplasmoides pneumoniae", "test": "Anti-mycoplasma activity against Mycoplasma pneumoniae M129 ATCC15531 assessed as inhibition of mycoplasma growth measured after 7 days by broth microdilution method", "type": "functional", "conditions": "M129 ATCC15531, 168 h, time 7 day"}, "[25]": {"test": "Tmax in Sprague-Dawley rat at 1 mg/kg, iv by LC-MS analysis", "type": "ADME, organism-based", "conditions": "in vivo"}, "[26]": {"tested_on": "Staphylococcus aureus", "test": "Antibacterial activity against methicillin-resistant Staphylococcus aureus ATCC 33591 infected in Kunming mouse assessed as reduction in bacterial load in lungs at 5 to 10 mg/kg, ip for 2 days starting from 1 hr post-infection by hematoxylin-eosin staining based analysis", "type": "functional, organism-based", "conditions": "dose 5-10 mg/kg, time 2.0 day"}, "[27]": {"tested_on": "Mycoplasmopsis synoviae", "test": "Potency index, ratio of tiamulin MIC to test compound MIC against anti-mycoplasma activity against Mycoplasma synoviae WVU1853 NCTC10124", "type": "functional"}, "[28]": {"test": "AUC(0 to t) in Sprague-Dawley rat at 1 mg/kg, iv by LC-MS analysis", "type": "ADME, organism-based", "parameters": "dose 1 mg/kg, route iv", "conditions": "in vivo"}, "[29]": {"tested_on": "Escherichia coli", "test": "Bactericidal activity against Escherichia coli ATCC 25922 assessed as reduction in bacterial colonies formation at 2XMIC incubated for 12 hrs in MHB followed by culturing on agar plate for 24 hrs by time-kill kinetics based analysis", "type": "functional", "parameters": "scale not given: the % may be the effect or the level left", "conditions": "time 36 hrs"}, "[30]": {"test": "MRT in Sprague-Dawley rat at 1 mg/kg, iv by LC-MS analysis", "type": "ADME, organism-based", "conditions": "in vivo"}, "[31]": {"test": "Clearance in Sprague-Dawley rat at 1 mg/kg, iv by LC-MS analysis", "type": "ADME, organism-based", "conditions": "in vivo"}, "[32]": {"tested_on": "Cell membrane", "test": "Disruption of bacterial cell membrane in methicillin-resistant Staphylococcus aureus ATCC 33591 assessed as increase in fluorescence intensity at 8XMIC measured within 3 mins by DiBAC4(3) dye based fluorescence analysis relative to control", "type": "subcellular"}, "[33]": {"tested_on": "Mycoplasmoides gallisepticum", "test": "Potency index, ratio of tiamulin MIC to test compound MIC against anti-mycoplasma activity against Mycoplasma gallisepticum R NCTC10115", "type": "functional"}, "[34]": {"tested_on": "Cell membrane", "test": "Disruption of bacterial cell membrane in Escherichia coli ATCC 25922 assessed as increase in fluorescence intensity at 8XMIC measured within 3 mins by DiBAC4(3) dye based fluorescence analysis relative to control"}},
  "note": "Calls of active or inactive are those of the source. No cut-off for these calls is given here.",
  "data": [
    {"compound": "C=C[C@]1(C)C[C@@H](OC(=O)CSc2nc(-c3cc[n+](Cc4ccc(C)cc4)cc3)cs2)[C@]2(C)[C@H](C)CC[C@]3(CCC(=O)[C@H]32)[C@@H](C)[C@@H]1O.[Br-]", "values": [
      {"measurement": "MIC", "setting": "[1]", "value": 64, "unit": "µg/mL"},
      {"measurement": "MIC", "setting": "[2]", "value": 8, "unit": "µg/mL"},
      {"measurement": "Activity", "setting": "[3]", "value": "Active"},
      {"measurement": "MIC", "setting": "[4]", "value": 8, "unit": "µg/mL"},
      {"measurement": "Activity", "setting": "[5]", "value": "Active"},
      {"measurement": "Drug metabolism", "setting": "[6]", "value": "Metabolite_Detected"},
      {"measurement": "Activity", "setting": "[7]", "value": 100, "unit": "%"},
      {"measurement": "MIC", "setting": "[8]", "value": 0.062, "unit": "µg/mL"},
      {"measurement": "Activity", "setting": "[9]", "value": "Active"},
      {"measurement": "Activity", "setting": "[10]", "value": "Active"},
      {"measurement": "Activity", "setting": "[11]", "value": "Dose-Dependent Effect"},
      {"measurement": "survival at 3 mg/kg", "setting": "[12]", "value": 42.9, "unit": "%"},
      {"measurement": "MIC", "setting": "[13]", "value": 0.004, "unit": "µg/mL"},
      {"measurement": "MIC", "setting": "[14]", "value": 2, "unit": "µg/mL"},
      {"measurement": "MIC", "setting": "[15]", "value": 1, "unit": "µg/mL"},
      {"measurement": "survival at 10 mg/kg", "setting": "[16]", "value": 71.4, "unit": "%"},
      {"measurement": "Activity", "setting": "[17]", "value": "Active"},
      {"measurement": "inhibition (INH)", "setting": "[18]", "value": 84.02, "unit": "%"},
      {"measurement": "Activity", "setting": "[19]", "value": 100, "unit": "%"},
      {"measurement": "MIC", "setting": "[20]", "value": 0.004, "unit": "µg/mL"},
      {"measurement": "Activity", "setting": "[21]", "value": "Active"},
      {"measurement": "survival at 5 mg/kg", "setting": "[22]", "value": 57.1, "unit": "%"},
      {"measurement": "inhibition (INH)", "setting": "[23]", "value": 86.43, "unit": "%"},
      {"measurement": "MIC", "setting": "[24]", "value": 0.03, "unit": "µg/mL"},
      {"measurement": "Tmax", "setting": "[25]", "value": 1.8, "unit": "min"},
      {"measurement": "Activity", "setting": "[26]", "value": "Active"},
      {"measurement": "Ratio", "setting": "[27]", "value": 10},
      {"measurement": "AUC(0-t)", "setting": "[28]", "value": 539, "unit": "ng·h/mL"},
      {"measurement": "Activity", "setting": "[29]", "value": 100, "unit": "%"},
      {"measurement": "MRT", "setting": "[30]", "value": 34.8, "unit": "min"},
      {"measurement": "clearance", "setting": "[31]", "value": 31.7, "unit": "mL/min/kg"},
      {"measurement": "fold change (FC)", "setting": "[32]", "value": 6},
      {"measurement": "Ratio", "setting": "[33]", "value": 10},
      {"measurement": "fold change (FC)", "setting": "[34]", "value": 6}
    ]}
  ]
}
